Measured values: patent publication US20240261315A1 (Omikron Italia S.r.l., priority 2021, published 2024)

Tests used:
Format in all cases: in vivo
[1] = test system: synaptophysin; assay: Synaptophysin quantification by immunofluorescence in retina of db/db mice; conditions: vs placebo and healthy control
Text: (§1) The db/db mice have a mutation in the leptin receptor gene and they are an animal model of retinal neurodegeneration. Such model is useful to mime the pathophysiological events which are found in neurodegenerative pathologies such as glaucoma.
(§2) 20 db/db […] (BKS.Cg-+Leprdb/+Leprdb/OlaHsd, males, 10 weeks) were randomized in 5 groups and treated for 15 days by oral route with oral solutions based on: • 1. Citicoline 0.5% (Cit.) in 10% lactose solution administered with nasogastric tube (SNG); • 2. […] 10% lactose solution (Placebo) administered with SNG; • 5. Healthy, non-diabetic control (Control).
(v) The quantification of caspase-3 and of synaptophysin was performed by means of immunofluorescence. The sections were fixed in methanol (20° C.) for 1 min and washed with buffered saline solution (PBS) 0.01 M at pH 7.4. Then, the sections were incubated in 10% solution NGS, 0.1% Triton X-100, PBS for 1 hour at room environment and subsequently incubated with a specific primary antibody (respectively anti-caspase-3 and anti-synaptophysin monoclonal antibody of rabbit) one night at 4° C. […] Five fields (three corresponding to the central retina and two to the peripheral one) were analysed. The fluorescence intensity of images was quantified with software ImageJ.

[2] = test system: apoptotic cells in the GCL retinal layer; assay: TUNEL assay of cellular apoptosis in retina of db/db mice; conditions: vs vehicle
Text: as §1, §2
(iv) The search for events of cellular apoptosis was performed through TUNEL assay by using the kit DeadEnd™ Fluorometric TUNEL System (PROMEGA, Madison, WI, USA). The TUNEL (Terminal Transferase dUTP Nick-End Labeling) colouring was performed by using the Kit system TUNEL Fluorometric DeadEnd (PROMEGA, Madison, WI, USA). Cryosections of retina were permeabilized by incubation for 2 minutes on ice with 0.1% Triton X-100 in 0.1% sodium citrate. The secondary antibody was Alexa 488 goat-anti-rabbit. For the evaluation by means of confocal laser scanning microscopy the excitation wavelength was 488 nm (detection in the range 515-565 nm (green)).

[3] = test system: db/db mice; assay: SD-OCT measurement of retinal layer thickness in db/db mice; conditions: 15 days oral treatment; for GC/IPL layer thickness / INL layer thickness / RNFL layer thickness: SD-OCT; for alteration in the thickness of retinal layers: vs placebo or healthy control
Text: as §1, §2
On day 15, 1 hour after the administration of the several treatments, the mice were subjected to (i) very high-resolution Spectral Domain Optical Coherence Tomography (SD-OCT), to obtain, in vivo, detailed images relating to the morphology of the different retinal layers. The mice were subjected to anaesthesia induced by single intraperitoneal injection of 80 mg/ml Ketamine, xylazine 12 mg/ml (Sigma-Adrich). Subsequently, to induce mydriasis, one single drop of 0.5% tropicamide was instilled and then each mouse positioned in front of the objective of OCT.
For all animals only the right eye was examined and the average obtained from three consecutive retinal scanning for each eye was considered for each layer. The OCT images were acquired through bidimensional scanning (B-scan) combined to noise reduction software with ART (automatic real time) and with a visual field of 30 degrees focalized on the head of the optic nerve. After OCT examination the animals were sacrificed by cervical dislocation and the eyes immediately enucleated.

[4] = test system: glial fibrillary acidic protein GFAP; assay: Glial activation, GFAP immunohistochemistry score in db/db mice
Text: as §1
[…] Citicoline 0.5% (Cit.) in 10% lactose solution administered with nasogastric tube (SNG); • 2. […] 10% lactose solution (Placebo) administered with SNG; • 5. Healthy, non-diabetic control (Control).
Through immunohistochemical assays, neurodegeneration histological markers were researched (glial activation and apoptosis):
(iii) The glial activation was evaluated by means of confocal laser scanning microscopy by using antibodies directed to the glial fibrillary acidic protein GFAP (anti-GFAP of rabbit). To evaluate the level of glial activation a scoring system (from 1 to 5) was used based upon the extension of GFAP (glial fibrillary acidic protein) colouring.
The sections were fixed in methanol (−20° C.) for 2 minutes, followed by three washing with saline phosphate buffer PBS (5 minutes each one). The sections were treated with Tris Saline Buffer TBS-Triton X-100 (0.025%) and incubated in a 1% solution of bovine albumin serum BSA and 10% goat serum in PBS for 2 hours at room temperature. The sections were then incubated with anti-GFAP of rabbit overnight at 4° C. in humid atmosphere. After three washing in PBS, 5 minutes each one, the sections were incubated with the secondary antibody Alexa AF488 goat-anti-rabbit (dilution 1:200 prepared in blocking solution). The sections were washed in PBS, coloured with Hoestch and assembled with means Flourescence Mounting Medium with a cover glass. Once the mounting support has dried up, comparative digital images of the samples were recorded with a confocal laser scanning microscope Fluoview FV 1000 Olympus (Olympus, Shinjuku, Tokyo, Japan) by using identical brightness and contrast settings.

[5] = test system: db/db mice; assay: Full field electroretinogram (ffERG) in db/db mice; conditions: stimuli 10 and 40 cd s/m2, vs Placebo
Text: as §1, §2
Through (ii) full field Electroretinogram (ffERG) the electrical activity and then the functionality of the retinal cells were evaluated. The recordings were measured by using ERG platform of Ganzfeld (Phoenix Research Laboratories, Pleasanton, CA, USA) and according to the recommendations of ISCEV (International Society for Clinical Electrophysiology of Vision).

SMILES | levels of synaptophysin [1] | apoptosis in GCL retinal layer (TUNEL) [2] | GC/IPL layer thickness [3] [μm] | INL layer thickness [3] [μm] | RNFL layer thickness [3] [μm] | alteration in the thickness of retinal layers [3] | GFAP score 1, share of mice [4] [%] | GFAP score 2, share of mice [4] [%] | GFAP score 3, share of mice [4] [%] | GFAP score 4, share of mice [4] [%] | GFAP score 5, share of mice [4] [%] | reduction in the width of wave b at ERG [5]
C[N+](C)(C)CCOP(=O)([O-])OP(=O)(O)OC[C@H]1O[C@@H](n2ccc(N)nc2=O)C(O)C1O (stereo partly drawn) [Citicoline, citidin-5′-difosfocholine] | statistically significant increase in the levels of synaptophysin | lower apoptosis rate with respect to the diabetic mice treated with the vehicle | 59.3 ± 4.8 | 20.9 ± 2.5 | 22.3 ± 1.3 | less reduction in the thickness of the layers | 71 | 22 | 7 | 0 | 0 | attenuated with respect to Placebo
NC(=O)c1cccnc1 [Nicotinamide] | statistically significant increase in the levels of synaptophysin | lower apoptosis levels than the diabetic mice treated with the vehicle but with not statistically significant levels | 58.8 ± 5.2 | 21.1 ± 2.1 | 21.8 ± 2.4 | less reduction in the thickness of the layers | 72 | 18 | 10 | 0 | 0 | attenuated with respect to Placebo
